Drawing on patent US10323022B2, “Pyrrolidinyl urea, pyrrolidinyl thiourea and pyrrolidinyl guanidine compounds as TrkA kinase inhibitors” (Array BioPharma Inc., priority 2011, dated 2019), this text covers IC50 for 25 compounds.

Each structure is given as a SMILES string. Counter-ions that a name gives are not always drawn.

This experiment deals with TrkA (Homo sapiens (Human), UniProt P04629). The experiment is described as follows: TrkA Omnia Assay. The class given is biochemical. Conditions: averaged IC50; 20 nM enzyme, 500 μM ATP, 10 μM peptide substrate. The essentials: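 Continuous fluorescent kinase read-out (ex 360 nm, em 485 nm) over 70 min, with initial rates fitted to 4- or 5-parameter logistic curves for IC50. Final conditions: 500 μM ATP, 10 μM Omnia Tyr Peptide #4, 20 nM TrkA, MOPS pH 7.5 buffer with MgCl2 and Triton X-100; enzyme and compound preincubated 10 min at ambient temperature.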
Chain of TrkA (P04629 33-796): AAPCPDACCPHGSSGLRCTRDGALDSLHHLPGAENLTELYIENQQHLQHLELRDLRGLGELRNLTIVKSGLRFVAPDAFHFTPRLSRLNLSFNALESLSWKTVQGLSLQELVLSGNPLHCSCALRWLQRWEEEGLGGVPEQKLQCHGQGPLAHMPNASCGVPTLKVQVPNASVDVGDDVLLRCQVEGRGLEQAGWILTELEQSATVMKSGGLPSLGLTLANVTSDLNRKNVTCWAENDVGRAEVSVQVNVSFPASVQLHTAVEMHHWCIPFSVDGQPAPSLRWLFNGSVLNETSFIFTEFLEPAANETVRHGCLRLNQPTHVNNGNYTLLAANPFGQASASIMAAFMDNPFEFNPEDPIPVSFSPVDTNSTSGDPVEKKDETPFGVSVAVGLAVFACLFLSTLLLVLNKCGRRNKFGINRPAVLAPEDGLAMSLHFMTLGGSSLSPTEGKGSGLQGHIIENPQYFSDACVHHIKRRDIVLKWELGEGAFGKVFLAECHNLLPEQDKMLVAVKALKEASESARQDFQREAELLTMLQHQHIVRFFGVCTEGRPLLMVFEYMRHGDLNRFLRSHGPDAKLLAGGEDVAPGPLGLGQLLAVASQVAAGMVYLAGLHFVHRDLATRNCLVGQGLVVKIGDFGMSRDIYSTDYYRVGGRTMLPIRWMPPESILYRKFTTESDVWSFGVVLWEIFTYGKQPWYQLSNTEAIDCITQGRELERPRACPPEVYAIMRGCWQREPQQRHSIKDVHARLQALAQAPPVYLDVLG
The compound `COCCN1C[C@@H](NC(=O)Nc2c(C)c(OC[C@H](O)CO)nn2-c2ccccc2)[C@H](c2cc(F)c(F)c(F)c2)C1` [Example 559, 1-(3-((R)-2,3-dihydroxvpropoxy)-4-methyl-1-phenyl-1H-pyrazol-5-yl)-3-((3S,4R)-1-(2-methoxyethyl)-4-(3,4,5-trifluorophenyl)pyrrolidin-3-yl)urea] displayed a concentration for half-maximal inhibition (IC50) of less than 100 nM.
As for `COCCN1C[C@@H](NC(=O)Nc2c(C)c(OC[C@@H](O)CO)nn2-c2ccccc2)[C@H](c2cc(F)c(F)c(F)c2)C1` [Example 560, 1-(3-((S)-2,3-dihydroxvpropoxy)-4-methyl-1-phenyl-1H-pyrazol-5-yl)-3-((3S,4R)-1-(2-methoxyethyl)-4-(3,4,5-trifluorophenyl)pyrrolidin-3-yl)urea], the figure is less than 100 nM.
As for `COCCN1C[C@@H](NC(=O)Nc2c(C)c(OC[C@H](C)O)nn2-c2ccccc2)[C@H](c2cc(F)c(F)c(F)c2)C1` [Example 561, 1-(3-((S)-2-hydroxypropoxy)-4-methyl-1-phenyl-1H-pyrazol-5-yl)-3-((3S,4R)-1-(2-methoxyethyl)-4-(3,4,5-trifluorophenyl)pyrrolidin-3-yl)urea], the figure is less than 100 nM; as for `COCCN1C[C@@H](NC(=O)Nc2c(C)c(OC[C@@H](O)COC)nn2-c2ccccc2)[C@H](c2ccc(F)c(F)c2)C1` [Example 562, 1-((3S,4R)-4-(3,4-difluorophenyl)-1-(2-methoxyethyl)pyrrolidin-3-yl)-3-(3-((S)-2-hydroxy-3-methoxypropoxy)-4-methyl-1-phenyl-1H-pyrazol-5-yl)urea], less than 100 nM; as for `COCCN1C[C@@H](NC(=O)Nc2c(C)c(OC[C@H](O)COC)nn2-c2ccccc2)[C@H](c2ccc(F)c(F)c2)C1` [Example 563, 1-((3S,4R)-4-(3,4-difluorophenyl)-1-(2-methoxyethyl)pyrrolidin-3-yl)-3-(3-((R)-2-hydroxy-3-methoxypropoxy)-4-methyl-1-phenyl-1H-pyrazol-5-yl)urea], less than 100 nM.
Under `COCCN1C[C@@H](NC(=O)Nc2c(C)c(OC[C@@H](O)COC)nn2-c2ccccc2)[C@H](c2cc(F)c(F)c(F)c2)C1` [Example 564, 1-(3-((S)-2-hydroxy-3-methoxypropoxy)-4-methyl-1-phenyl-1H-pyrazol-5-yl)-3-((3S,4R)-1-(2-methoxyethyl)-4-(3,4,5-trifluorophenyl)pyrrolidin-3-yl)urea] stands less than 100 nM.
With `COCCN1C[C@@H](NC(=O)Nc2c(C)c(OC[C@H](O)COC)nn2-c2ccccc2)[C@H](c2cc(F)c(F)c(F)c2)C1` [Example 565, 1-(3-((R)-2-hydroxy-3-methoxypropoxy)-4-methyl-1-phenyl-1H-pyrazol-5-yl)-3-((3S,4R)-1-(2-methoxyethyl)-4-(3,4,5-trifluorophenyl)pyrrolidin-3-yl)urea], the IC50 was less than 100 nM.
The compound `COCCN1C[C@@H](NC(=O)Nc2c(Br)c(-c3cnn(C)c3)nn2C)[C@H](c2ccc(F)c(F)c2)C1` [Example 566, 1-(4-bromo-1,1′-dimethyl-1H, 1′H-[3,4′-bipyrazol]-5-yl)-3-((3S,4R)-4-(3,4-difluorophenyl)-1-(2-methoxyethyl)pyrrolidin-3-yl)urea] yielded a 50% inhibitory concentration (IC50) of 100 to 1000 nM.
As for `COCCN1C[C@@H](NC(=O)Nc2c(Cl)c(-c3cnn(C)c3)nn2C)[C@H](c2ccc(F)c(F)c2)C1` [Example 567, 1-(4-chloro-1,1′-dimethyl-1H, 1′H-[3,4′-bipyrazol]-5-yl)-3-((3S,4R)-4-(3,4-difluorophenyl)-1-(2-methoxyethyl)pyrrolidin-3-yl)urea], the figure is 100 to 1000 nM.
The compound `COCCN1C[C@@H](NC(=O)Nc2c(Cl)c(C3CCOCC3)nn2-c2ccccc2)[C@H](c2ccc(F)c(F)c2)C1` [Example 568, 1-(4-chloro-1-phenyl-3-(tetrahydro-2H-pyran-4-yl)-1H-pyrazol-5-yl)-3-((3S,4R)-4-(3,4-difluorophenyl)-1-(2-methoxyethyl)pyrrolidin-3-yl)urea] gave a half-maximal inhibitory concentration (IC50) of less than 100 nM.
Under `COCCN1C[C@@H](NC(=O)Nc2c(Cl)c(C3CCN(C(=O)OC(C)(C)C)CC3)nn2-c2ccccc2)[C@H](c2ccc(F)c(F)c2)C1` [Example 569, Tert-butyl 4-(4-chloro-5-(3-((3S,4R)-4-(3,4-difluorophenyl)-1-(2-methoxyethyl)pyrrolidin-3-yl)ureido)-1-phenyl-1H-pyrazol-3-yl)piperidine-1-carboxylate] stands less than 100 nM; under `COCCN1C[C@@H](NC(=O)Nc2c(Cl)c(C3CCOCC3)nn2-c2ccccc2)[C@H](c2ccc(F)cc2)C1` [Example 570, 1-(4-chloro-1-phenyl-3-(tetrahydro-2H-pyran-4-yl)-1H-pyrazol-5-yl)-3-((3S,4R)-4-(4-fluorophenyl)-1-(2-methoxyethyl)pyrrolidin-3-yl)urea], less than 100 nM; under `COCCN1C[C@@H](NC(=O)Nc2c(Cl)c(-c3c(C)noc3C)nn2-c2ccccc2)[C@H](c2ccc(F)c(F)c2)C1` [Example 571, 1-(4-chloro-3-(3,5-dimethylisoxazol-4-yl)-1-phenyl-1H-pyrazol-5-yl)-3-((3S,4R)-4-(3,4-difluorophenyl)-1-(2-methoxyethyl)pyrrolidin-3-yl)urea], less than 100 nM.
`COCCN1C[C@@H](NC(=O)Nc2c(Cl)c([C@H]3CCCN3C(=O)OC(C)(C)C)nn2-c2ccccc2)[C@H](c2ccc(F)c(F)c2)C1` [Example 572, (R)-tert-butyl 2-(4-chloro-5-(3-((3S,4R)-4-(3,4-difluorophenyl)-1-(2-methoxyethyl)pyrrolidin-3-yl)ureido)-1-phenyl-1H-pyrazol-3-yl)pyrrolidine-1-carboxylate]: the IC50 was 100 to 1000 nM.
Under `COCCN1C[C@@H](NC(=O)Nc2c(Cl)c([C@@H]3CCCN3C(=O)OC(C)(C)C)nn2-c2ccccc2)[C@H](c2ccc(F)c(F)c2)C1` [Example 573, (S)-tert-butyl 2-(4-chloro-5-(3-((3S,4R)-4-(3,4-difluorophenyl)-1-(2-methoxyethyl)pyrrolidin-3-yl)ureido)-1-phenyl-1H-pyrazol-3-yl)pyrrolidine-1-carboxylate] stands 100 to 1000 nM; under `COCCN1C[C@@H](NC(=O)Nc2c(Br)c(C3CCOCC3)nn2-c2ccccc2)[C@H](c2ccc(F)c(F)c2)C1` [Example 574, 1-(4-bromo-1-phenyl-3-(tetrahydro-2H-pyran-4-yl)-1H-pyrazol-5-yl)-3-((3S,4R)-4-(3,4-difluorophenyl)-1-(2-methoxyethyl)pyrrolidin-3-yl)urea], less than 100 nM; under `COCCN1C[C@@H](NC(=O)Nc2c(Br)c(C3CCN(C(=O)OC(C)(C)C)CC3)nn2-c2ccccc2)[C@H](c2ccc(F)c(F)c2)C1` [Example 575, Tert-butyl 4-(4-bromo-5-(3-((3S,4R)-4-(3,4-difluorophenyl)-1-(2-methoxyethyl)pyrrolidin-3-yl)ureido)-1-phenyl-1H-pyrazol-3-yl)piperidine-1-carboxylate], less than 100 nM.
As for `COCCN1C[C@@H](NC(=O)Nc2c(Br)c(C3CCOCC3)nn2-c2ccccc2)[C@H](c2ccc(F)cc2)C1` [Example 576, 1-(4-bromo-1-phenyl-3-(tetrahydro-2H-pyran-4-yl)-1H-pyrazol-5-yl)-3-((3S,4R)-4-(4-fluorophenyl)-1-(2-methoxyethyl)pyrrolidin-3-yl)urea], the figure is less than 100 nM; as for `COCCN1C[C@@H](NC(=O)Nc2c(Br)c(-c3c(C)noc3C)nn2-c2ccccc2)[C@H](c2ccc(F)c(F)c2)C1` [Example 577, 1-(4-bromo-3-(3,5-dimethylisoxazol-4-yl)-1-phenyl-1H-pyrazol-5-yl)-3-((3S,4R)-4-(3,4-difluorophenyl)-1-(2-methoxyethyl)pyrrolidin-3-yl)urea], less than 100 nM.
As for `COCCN1C[C@@H](NC(=O)Nc2c(Br)c([C@H]3CCCN3C(=O)OC(C)(C)C)nn2-c2ccccc2)[C@H](c2ccc(F)c(F)c2)C1` [Example 578, (R)-tert-butyl 2-(4-bromo-5-(3-((3S,4R)-4-(3,4-difluorophenyl)-1-(2-methoxyethyl)pyrrolidin-3-yl)ureido)-1-phenyl-1H-pyrazol-3-yl)pyrrolidine-1-carboxylate], the figure is 100 to 1000 nM; as for `COCCN1C[C@@H](NC(=O)Nc2c(Br)c(COC3CCN(C(=O)OC(C)(C)C)CC3)nn2-c2ccccc2)[C@H](c2ccc(F)c(F)c2)C1` [Example 579, tert-butyl 4-((4-bromo-5-(3-((3S,4R)-4-(3,4-difluorophenyl)-1-(2-methoxyethyl)pyrrolidin-3-yl)ureido)-1-phenyl-1H-pyrazol-3-yl)methoxy)piperidine-1-carboxylate], less than 100 nM; as for `COCCN1C[C@@H](NC(=O)Nc2cc(C3CCNCC3)nn2-c2ccccc2)[C@H](c2ccc(F)c(F)c2)C1` [Example 580, 1-((3S,4R)-4-(3,4-difluorophenyvl)-1-(2-methoxyethyl)pyrrolidin-3-yl)-3-(1-phenyl-3-(piperidin-4-yl)-1H-pyrazol-5-yl)urea dihydrochloride], 100 to 1000 nM.
In turn, `COCCN1C[C@@H](NC(=O)Nc2c(Cl)c(C3CCNCC3)nn2-c2ccccc2)[C@H](c2ccc(F)c(F)c2)C1` [Example 581, 1-(4-chloro-1-phenyl-3-(piperidin-4-yl)-1H-pyrazol-5-yl)-3-((3S,4R)-4-(3,4-difluorophenyl)-1-(2-methoxyethyl)pyrrolidin-3-yl)urea dihydrochloride] had an IC50 of less than 100 nM.
Regarding `COCCN1C[C@@H](NC(=O)Nc2c(Br)c(C3CCNCC3)nn2-c2ccccc2)[C@H](c2ccc(F)c(F)c2)C1` [Example 582, 1-(4-bromo-1-phenyl-3-(piperidin-4-yl)-1H-pyrazol-5-yl)-3-((3S,4R)-4-(3,4-difluorophenyl)-1-(2-methoxyethyl)pyrrolidin-3-yl)urea dihydrochloride], the IC50 is less than 100 nM.
Turning to `COCCN1C[C@@H](NC(=O)Nc2c(C)c([C@H]3CCCN3)nn2-c2ccccc2)[C@H](c2ccc(F)c(F)c2)C1` [Example 583, 1-((3S,4R)-4-(3,4-difluorophenyl)-1-(2-methoxyethyl)pyrrolidin-3-yl)-3-(4-methyl-1-phenyl-3-((R)-pyrrolidin-2-yl)-1H-pyrazol-5-yl)urea dihydrochloride], the concentration for half-maximal inhibition (IC50) was less than 100 nM.

A word on the IC50: it is the concentration at which inhibition is half-maximal.
